Source: US11674951B2, “Methods for identifying a treatment for rheumatoid arthritis” (The Brigham and Women's Hospital, Inc., priority 2017, dated 2023)
Where “and” joins values, the source holds several entries; their conditions need not be identical. Equal values may be shown once.

Key:
[1] = tested on: PTPN22 transcripts in PBMC; test: Anti-CD3 antibody induced PTPN22 transcript level in PBMC in absence or presence of drug (RT-PCR, drug/no-drug ratio); type: cell-based, human; conditions: anti-CD3 2.5 ug/ml, 24 hours
Method: PBMCs (1 million cells) of these subjects that were collected before the treatment were stimulated in vitro with anti-CD3 antibodies (2.5 ug/ml) in the absence or presence of corresponding drug (etanercept 250 ug/ml, adalimumab 100 ug/ml) for 24 hours. PBMC from subject BW34 was tested separately with etancercept and adalimumab. RNA was harvested from the stimulated cells and the level of PTPN22 transcripts was quantified with RT-PCR.
The PTPN22 level from cells stimulated in the presence of drug was then divided by the level obtained from cells stimulated in the absence of drug. This drug/no-drug ratio calculated from the 9 drug responders ranged from 1.67 to 2.5, whereas the ratio calculated from the 6 drug non-responders ranged from 0.86 to 1.35 (FIG. 4 and Table 1). […]

active RA patients = test: Clinical response of active RA patients (CPIRA study) by Clinical Disease Activity Index (CDAI); type: in vivo, human; parameters: key to 2nd visit CDAI / ΔCDAI: CDAI = SJC(28)+TJC(28)+PGA+EGA; PGA/EGA on 1-10, 10 = maximal activity; conditions: for ΔCDAI: 1st visit minus 2nd visit CDAI; for 2nd visit CDAI: 12 weeks after the treatment started; for number of treated subjects who did not respond (CDAI definition) / number of treated subjects who responded (CDAI definition): seven CPIRA subjects treated per drug
Excerpt: The Clinical Disease Activity Index (CDAI) is a useful clinical composite score for patients with rheumatoid arthritis. In some embodiments, it can be determined by the following formula: CDAI=SJC(28)+TJC(28)+PGA+EGA, wherein SJC(28) is Swollen 28-Joint Count (shoulders, elbows, wrists, MCPs, PIPs including thumb IP, knees), TJC(28) is Tender 28-Joint Count (shoulders, elbows, wrists, MCPs, PIPs including thumb IP, knees), PGA is Patient Global disease Activity (patient's self assessment of overall RA disease activity on a scale 1-10 where 10 is maximal activity), and EGA is Evaluator's Global disease Activity (evaluator's assessment of overall RA disease activity on a scale 1-10 where 10 is maximal activity). In some embodiments, a subject with an RA can have a CDAI that is equal to or greater than 5, 10, 15, or 20. In some embodiments, the subject has an active RA, and a subject with an active RA can have a CDAI that is equal to or greater than 10. A CDAI that is equal to or greater than 10 often indicates moderate or severe RA.
Active RA patients were recruited through the Central Pain in Rheumatoid Arthritis (CPIRA) study. The PBMC were collected from active RA patients at the time when they switched or started a new RA treatment and were also collected 12 weeks after the treatment started.
PBMC collected from 14 CPIRA subjects before they started either etanercept or adalimumab were analyzed (Table 1). Seven of the […] subjects were treated by etanercept.
The responsiveness to treatment was determined by the following definition.
CDAI decrease>=12 for those with baseline CDAI>22,
CDAI decrease>=6 for those with baseline CDAI>=10,
CDAI decrease>=1 for those with baseline CDAI<10.

[2] = adalimumab non-responders, one value per subject: BW34, BW83
[3] = adalimumab responders, one value per subject: BW32, BW57, BW85, BW89, BS137
[4] = etanercept non-responders, one value per subject: BW53, BW80, BW116
[5] = etanercept responders, one value per subject: BW39, BW56, BW82, BW110

Row | Substance | PTPN22 Drug/no-drug ratio ([1]; PBMC of adalimumab non-responders collected before treatment, adalimumab 100 ug/ml, one value per subject: BW34, BW83) | PTPN22 Drug/no-drug ratio ([1]; PBMC of adalimumab responders collected before treatment, adalimumab 100 ug/ml, one value per subject: BW32, BW57, BW85, BW89, BS137) | ΔCDAI (active RA patients; [2]) | 2nd visit CDAI (active RA patients; [2]) | ΔCDAI (active RA patients; [3]) | 2nd visit CDAI (active RA patients; [3]) | number of treated subjects who did not respond (CDAI definition) (active RA patients) | number of treated subjects who responded (CDAI definition) (active RA patients) | PTPN22 Drug/no-drug ratio ([1]; PBMC of etanercept non-responders collected before treatment, etanercept 250 ug/ml, one value per subject: BW53, BW80, BW116, BW34*) | PTPN22 Drug/no-drug ratio ([1]; PBMC of etanercept responders collected before treatment, etanercept 250 ug/ml, one value per subject: BW39, BW56, BW82, BW110) | ΔCDAI (active RA patients; [4]) | 2nd visit CDAI (active RA patients; [4]) | ΔCDAI (active RA patients; [5]) | 2nd visit CDAI (active RA patients; [5])
1 | adalimumab | 1.17 and 0.93 | 1.82 and 1.77 and 1.97 and 2.37 and 1.67 | 4.8 and 1 | 24.2 and 13 | 15.2 and 10 and 21 and 23 and 13 | 0 and 9 and 25 and 34 and 18 | two | five |  |  |  |  |  | 
2 | etanercept |  |  |  |  |  |  | three | Four | 0.86 and 1.18 and 1.23 and 1.35 | 2.14 and 2.04 and 1.82 and 2.5 | 1.5 and −0.5 and 6 | 25.5 and 21.5 and 23 | 12.5 (2×) and 9 and 23 | 0 and 6.5 and 6 and 12
